Drawing on ChEMBL document CHEMBL3390844, “Development of substituted 7-phenyl-4-aminobenzothieno[3,2-d] pyrimidines as potent LIMK1 inhibitors” (Medchemcomm, 2011), this text covers IC50 for 38 molecules.

SMILES strings stand for the structures.

The target of one experiment is T1, LIM domain kinase 1 (Homo sapiens, UniProt P53667). Description: Inhibition of LIMK1 (unknown origin) assessed as remaining ATP level using cofilin-2 protein as substrate measured after 60 mins incubation with enzyme by KinaseGlo assay. Background: Kinase-Glo measures the ATP left after a reaction by luminescence.
T1 sequence (P53667 whole entry, the tested form may be a part): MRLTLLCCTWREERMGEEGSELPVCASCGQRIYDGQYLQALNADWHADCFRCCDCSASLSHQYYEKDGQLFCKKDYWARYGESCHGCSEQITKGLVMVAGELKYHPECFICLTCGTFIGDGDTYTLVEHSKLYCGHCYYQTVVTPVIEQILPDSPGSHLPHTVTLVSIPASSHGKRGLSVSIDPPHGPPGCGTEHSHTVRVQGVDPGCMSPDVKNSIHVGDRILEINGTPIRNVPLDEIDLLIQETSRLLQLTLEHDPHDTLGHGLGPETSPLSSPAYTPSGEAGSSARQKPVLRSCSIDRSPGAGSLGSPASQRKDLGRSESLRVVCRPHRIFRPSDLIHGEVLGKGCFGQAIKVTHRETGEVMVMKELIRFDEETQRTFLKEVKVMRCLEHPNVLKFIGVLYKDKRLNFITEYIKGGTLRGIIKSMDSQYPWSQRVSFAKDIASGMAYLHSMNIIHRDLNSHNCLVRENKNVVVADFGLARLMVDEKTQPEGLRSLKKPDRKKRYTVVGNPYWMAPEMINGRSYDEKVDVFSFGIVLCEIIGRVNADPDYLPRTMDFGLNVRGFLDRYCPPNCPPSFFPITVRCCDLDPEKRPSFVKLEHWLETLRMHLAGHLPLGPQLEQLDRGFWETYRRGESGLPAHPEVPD
As for `COc1ccccc1-c1ccc2c(c1)sc1c(N)ncnc12`, the IC50 (in general, the concentration that gives 50% inhibition) stood at 220 nM.

Turning to `CC(=O)Nc1ccc(-c2ccc3c(c2)sc2c(N)ncnc23)cc1`, the half-inhibitory concentration (IC50) worked out at 181 nM. Take `CS(=O)(=O)c1cccc(-c2ccc3c(c2)sc2c(N)ncnc23)c1`: the IC50 came out at 361 nM. In the case of `Nc1ncnc2c1sc1cc(-c3ccc(-c4nn[nH]n4)cc3)ccc12`, the IC50 came to 127 nM. Same read-out and setting: in the case of `Nc1ncnc2c1sc1cc(-c3ccccc3Cl)ccc12` it was more than 1000 nM; in that of `Nc1ncnc2c1sc1cc(-c3cccc(CO)c3)ccc12`, 129 nM; in that of `Nc1ncnc2c1sc1cc(-c3ccc(NC=O)cc3)ccc12`, 44 nM.

On to `CC(=O)c1ccc(-c2ccc3c(c2)sc2c(N)ncnc23)cc1`, for which the concentration for half-maximal inhibition (IC50) was 172 nM. On the same count and under the same terms, in the case of `COc1cccc(-c2ccc3c(c2)sc2c(N)ncnc23)c1` it was 149 nM; in that of `CS(=O)(=O)Nc1ccc(-c2ccc3c(c2)sc2c(N)ncnc23)cc1`, 243 nM; in that of `COc1ccc(-c2ccc3c(c2)sc2c(N)ncnc23)cc1`, 204 nM. Still for that read-out and setting: in the case of `Nc1ncnc2c1sc1cc(-c3ccccc3O)ccc12` it was 260 nM; in that of `Nc1ncnc2c1sc1cc(-c3cccnc3)ccc12`, 795 nM; in that of `CS(=O)(=O)Nc1ccccc1-c1ccc2c(c1)sc1c(N)ncnc12`, 998 nM. Same read-out and setting: in the case of `Nc1ccccc1-c1ccc2c(c1)sc1c(N)ncnc12` it was 310 nM; in that of `Nc1ncnc2c1sc1cc(-c3cccc(C(=O)O)c3)ccc12`, 196 nM. In the case of `Nc1ccc(-c2ccc3c(c2)sc2c(N)ncnc23)cc1`, the half-inhibitory concentration (IC50) turned out to be 159 nM.

For `Nc1ncnc2c1sc1cc(-c3cccc(O)c3)ccc12`, the IC50 is 230 nM.

Take `Nc1ncnc2c1sc1cc(-c3ccc(CO)cc3)ccc12`: the concentration for half-maximal inhibition (IC50) was determined as 163 nM. Same read-out and setting: in the case of `Nc1ncnc2c1sc1cc(-c3ccc(O)cc3)ccc12` it was 267 nM; in that of `CC(=O)Nc1cccc(-c2ccc3c(c2)sc2c(N)ncnc23)c1`, 395 nM; in that of `Nc1ncnc2c1sc1cc(-c3cccc(NC=O)c3)ccc12`, 55 nM. Same read-out and setting: in the case of `CS(=O)(=O)c1ccc(-c2ccc3c(c2)sc2c(N)ncnc23)cc1` it was 376 nM; in that of `Nc1cccc(-c2ccc3c(c2)sc2c(N)ncnc23)c1`, 231 nM; in that of `Nc1ncnc2c1sc1cc(-c3cccc(Cl)c3)ccc12`, 199 nM. Same read-out and setting: in the case of `Nc1ncnc2c1sc1cc(-c3ccncc3)ccc12` it was 732 nM; in that of `NC(=O)c1ccc(-c2ccc3c(c2)sc2c(N)ncnc23)cc1`, 156 nM; in that of `N#Cc1ccc(-c2ccc3c(c2)sc2c(N)ncnc23)cc1`, 828 nM.

The target of another experiment is T1, LIM domain kinase 1. The experiment is described as follows: Inhibition of LIMK1 (unknown origin) assessed as ADP formation using cofilin-2 protein as substrate measured after 60 mins incubation with enzyme by Transcreener assay.
In the case of `CC(C)NC(=O)Nc1cccc(-c2ccc3c(c2)sc2c(N)ncnc23)c1`, the IC50 stood at 78 nM. With `NC(=O)Nc1cccc(-c2ccc3c(c2)sc2c(N)ncnc23)c1`, the IC50 worked out at 145 nM. On the same count and under the same terms, in the case of `C[C@@H](NC(=O)c1cccc(-c2ccc3c(c2)sc2c(N)ncnc23)c1)C(N)=O` it was 294 nM; in that of `Cn1c2cc(-c3ccc(O)cc3)ccc2c2ncnc(N)c21`, 571 nM. On the same count and under the same terms, in the case of `Nc1ncnc2c1sc1cc(-c3cccc(C(=O)N4CCOCC4)c3)ccc12` it was more than 1000 nM; in that of `Nc1ncnc2c1sc1cc(-c3cccc(C(=O)NCCO)c3)ccc12`, 228 nM. On the same count and under the same terms, in the case of `Cn1c2cc(-c3cccc(C(N)=O)c3)ccc2c2ncnc(N)c21` it was 379 nM; in that of `CN1CCN(CCNC(=O)Nc2cccc(-c3ccc4c(c3)sc3c(N)ncnc34)c2)CC1`, 223 nM. On to `Cn1c2cc(-c3ccc(NC=O)cc3)ccc2c2ncnc(N)c21`, for which the IC50 was 498 nM.

In the case of `Nc1ncnc2c1sc1cc(-c3cccc(NC=O)c3)ccc12`, the IC50 was found to be 55 nM. Regarding `CC(C)CNC(=O)Nc1cccc(-c2ccc3c(c2)sc2c(N)ncnc23)c1`, the IC50 came out at 237 nM.
